The subject of test [1] is RAW264.7. As to the kind of experiment: Anti-inflammatory activity in mouse RAW264.7 cells assessed as inhibition of LPS-induced nitric oxide production at 10 uM pre-incubated for 2 hrs before LPS stimulation for 18 hrs by Griess reagent based colorimetric method. The test is classed as functional.
In test [2] the test system is RAW264.7. As to the kind of experiment: Cytotoxicity against mouse RAW264.7 cells assessed as reduction in cell viability after 24 hrs in presence of LPS by MTT assay. The test is classed as cell-based. The note with it: RAW264.7, 24 h.
Test [3] concerns RAW264.7. Kind of test: Cytotoxicity against mouse RAW264.7 cells assessed as reduction in cell viability after 24 hrs in absence of LPS by MTT assay. It counts as cell-based. Conditions: RAW264.7, 24 h.
In test [4] the target is T1, Nitric oxide synthase, inducible (Mus musculus, UniProt P29477).
T1 sequence (P29477 whole entry): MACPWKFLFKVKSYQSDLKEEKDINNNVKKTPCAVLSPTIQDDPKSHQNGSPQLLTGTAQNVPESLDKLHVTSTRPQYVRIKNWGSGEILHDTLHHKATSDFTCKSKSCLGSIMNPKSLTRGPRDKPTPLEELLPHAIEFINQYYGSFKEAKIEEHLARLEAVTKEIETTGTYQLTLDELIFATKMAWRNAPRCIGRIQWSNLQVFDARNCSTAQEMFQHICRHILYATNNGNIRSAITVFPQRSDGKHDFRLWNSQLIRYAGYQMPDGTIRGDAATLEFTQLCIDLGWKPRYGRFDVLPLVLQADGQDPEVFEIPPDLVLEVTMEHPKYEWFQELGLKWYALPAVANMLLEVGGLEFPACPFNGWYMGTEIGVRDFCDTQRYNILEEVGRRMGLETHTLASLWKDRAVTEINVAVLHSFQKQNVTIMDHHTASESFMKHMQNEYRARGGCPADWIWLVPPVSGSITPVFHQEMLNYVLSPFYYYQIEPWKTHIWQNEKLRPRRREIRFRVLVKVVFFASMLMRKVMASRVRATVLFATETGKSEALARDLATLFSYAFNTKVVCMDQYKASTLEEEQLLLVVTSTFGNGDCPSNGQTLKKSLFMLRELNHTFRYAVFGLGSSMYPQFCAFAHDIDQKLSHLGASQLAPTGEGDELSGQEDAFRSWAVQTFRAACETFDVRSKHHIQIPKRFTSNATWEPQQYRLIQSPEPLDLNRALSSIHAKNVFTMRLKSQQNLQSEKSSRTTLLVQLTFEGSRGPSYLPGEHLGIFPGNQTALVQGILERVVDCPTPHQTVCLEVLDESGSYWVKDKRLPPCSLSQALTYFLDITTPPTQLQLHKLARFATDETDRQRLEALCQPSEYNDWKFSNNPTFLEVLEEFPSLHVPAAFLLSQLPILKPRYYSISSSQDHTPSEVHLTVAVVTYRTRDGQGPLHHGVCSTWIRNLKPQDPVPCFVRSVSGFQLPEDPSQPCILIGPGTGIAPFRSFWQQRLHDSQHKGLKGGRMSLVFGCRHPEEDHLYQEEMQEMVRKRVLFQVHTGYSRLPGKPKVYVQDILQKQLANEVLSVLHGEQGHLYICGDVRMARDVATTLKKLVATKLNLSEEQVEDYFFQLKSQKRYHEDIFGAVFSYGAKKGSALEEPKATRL
Kind of test: Inhibition of iNOS in LPS-stimulated mouse RAW264.7 cells using L-Arginine substrate incubated for 2 hrs by fluorescence spectrometry. The test is classed as cell-based.

Test [5] concerns Mus musculus. As to the kind of experiment: Anti-inflammatory activity in ICR mouse model of carrageenan-induced edema assessed as inhibition of paw thickness at 10 mg/kg, ip. It counts as functional. The note with it: route intraperitoneal.
The test system of test [6] is Mus musculus. Kind of test: Anti-inflammatory activity in ICR mouse model of adjuvant-induced arthritis assessed as reduction in arthritis severity scores at 25 and 50 mg/kg, po dosed once daily from day 17 after vaccination. The test is classed as functional, organism-based. Details: dose 50 mg/kg.
Test [7] has as its system Mus musculus. As to the kind of experiment: Anti-inflammatory activity in ICR mouse model of carrageenan-induced edema assessed as inhibition of paw thickness at 25 mg/kg, ip. Details: dose 25 mg/kg. It counts as functional, organism-based.
Test [8] relates to Mus musculus. Kind of test: Anti-inflammatory activity in ICR mouse model of carrageenan-induced edema assessed as inhibition of paw thickness at 50 mg/kg, ip. The test is classed as functional. The note with it: route intraperitoneal.
The subject of test [9] is Mus musculus. Kind of test: Anti-inflammatory activity in ICR mouse model of adjuvant-induced arthritis assessed as reduction in histopathological changes at 50 mg/kg, po dosed once daily from day 17 after vaccination by H and E staining method. It counts as functional, organism-based. Details: dose 50 mg/kg.

Activity calls are given as the source filed them. No cut-off for these calls is given here. Where only a bound is given, the exact number is not on record here.

Consider `COc1ccc(C2=NN(C(=O)c3cc(OC)c(OC)c(OC)c3)C(c3cc(OC)c(OC)c(OC)c3)C2)c2c1C=CC(C)(C)O2` (configuration not stated), for which the inhibition at 10 µM with RAW264.7 [1] was 57.2%. On to `COc1ccc(C2=NN(S(=O)(=O)c3ccc(F)cc3)C(c3cc(OC)c(OC)c(OC)c3)C2)c2c1C=CC(C)(C)O2` (configuration not stated), for which the inhibition at 10 µM in the test on RAW264.7 [1] came to 23.2%. With `COc1ccc(C2=NN(c3ccc([N+](=O)[O-])cc3)C(c3cc(OC)c(OC)c(OC)c3)C2)c2c1C=CC(C)(C)O2` (configuration not stated), the inhibition at 10 µM in the test on RAW264.7 [1] was found to be 15.7%. On the same count and under the same terms, to `CCCS(=O)(=O)N1N=C(c2ccc(OC)c3c2OC(C)(C)C=C3)CC1c1cc(OC)c(OC)c(OC)c1` (configuration not stated) belongs 40.8%; to `CCC(=O)N1N=C(c2ccc(OC)c3c2OC(C)(C)C=C3)CC1c1cc(OC)c(OC)c(OC)c1` (configuration not stated), 65.9%; to `COc1ccc(C2=NN(C(=O)c3ccccc3C(F)(F)F)C(c3cc(OC)c(OC)c(OC)c3)C2)c2c1C=CC(C)(C)O2` (configuration not stated), 18.9%. Still for that read-out and setting: to `COc1ccc(C2=NN(S(=O)(=O)c3ccc([N+](=O)[O-])cc3)C(c3cc(OC)c(OC)c(OC)c3)C2)c2c1C=CC(C)(C)O2` (configuration not stated) belongs 41%.

On to `COc1ccc(C2=NN(C(=O)c3ccc(F)cc3)C(c3cc(OC)c(OC)c(OC)c3)C2)c2c1C=CC(C)(C)O2` (configuration not stated), for which the inhibition at 10 µM with RAW264.7 [1] was 17.5%. With `COc1ccc(C2=NN(C(=O)CCCl)C(c3cc(OC)c(OC)c(OC)c3)C2)c2c1C=CC(C)(C)O2` (configuration not stated), the inhibition at 10 µM with RAW264.7 [1] was 62.1%. As to `COc1ccc(C2=NN(C(=O)c3ccc(C(F)(F)F)cc3)C(c3cc(OC)c(OC)c(OC)c3)C2)c2c1C=CC(C)(C)O2` (configuration not stated), the inhibition at 10 µM in the test with RAW264.7 [1] is 23.1%. With `COc1ccc(C2=NNC(c3cc(OC)c(OC)c(OC)c3)C2)c2c1C=CC(C)(C)O2` (configuration not stated), the inhibition at 10 µM in the test on RAW264.7 [1] was found to be 49.2%. The same measure, in the same setting: to `COc1ccc(C2=NN(S(=O)(=O)c3cc(C)cc(C)c3)C(c3cc(OC)c(OC)c(OC)c3)C2)c2c1C=CC(C)(C)O2` (configuration not stated) belongs 26.9%; to `COc1ccc(C2=NN(c3ccc(F)cc3)C(c3cc(OC)c(OC)c(OC)c3)C2)c2c1C=CC(C)(C)O2` (configuration not stated), 30.8%; to `COc1ccc(C2=NN(c3ccc(C#N)cc3)C(c3cc(OC)c(OC)c(OC)c3)C2)c2c1C=CC(C)(C)O2` (configuration not stated), 40.8%.

On to `COc1ccc(C2=NN(C(=O)CCl)C(c3cc(OC)c(OC)c(OC)c3)C2)c2c1C=CC(C)(C)O2` (configuration not stated), for which the inhibition at 10 µM with RAW264.7 [1] was found to be 96.7%. Also, the 50% inhibitory concentration (IC50) with RAW264.7 [2] amounted to 19.3 µM; with RAW264.7 [3], 30.8 µM; in test [4] it was 2.5 µM. As to `COc1ccc(C2=NN(C(=O)c3ccc(Cl)cc3)C(c3cc(OC)c(OC)c(OC)c3)C2)c2c1C=CC(C)(C)O2` (configuration not stated), the inhibition at 10 µM with RAW264.7 [1] was found to be 34.7%.

`COc1ccc(C2=NN(C(=O)c3cccc(F)c3)C(c3cc(OC)c(OC)c(OC)c3)C2)c2c1C=CC(C)(C)O2` (configuration not stated): the inhibition at 10 µM in the test with RAW264.7 [1] came out at 35.1%. Consider `COc1ccc(C2=NN(C(=O)c3cccc(Cl)c3)C(c3cc(OC)c(OC)c(OC)c3)C2)c2c1C=CC(C)(C)O2` (configuration not stated), for which the inhibition at 10 µM in the test with RAW264.7 [1] is 29.1%.

As for `COc1ccc(C2=NN(c3ccc(C(F)(F)F)cc3)C(c3cc(OC)c(OC)c(OC)c3)C2)c2c1C=CC(C)(C)O2` (configuration not stated), in the test with RAW264.7 [1], the inhibition at 10 µM was 14.4%.

In the case of `COc1ccc(C2=NN(S(=O)(=O)c3ccc(C)cc3)C(c3cc(OC)c(OC)c(OC)c3)C2)c2c1C=CC(C)(C)O2` (configuration not stated), the inhibition at 10 µM with RAW264.7 [1] came to 35.9%.

For the molecule `COc1ccc(C2=NN(S(=O)(=O)C3CC3)C(c3cc(OC)c(OC)c(OC)c3)C2)c2c1C=CC(C)(C)O2` (configuration not stated), the inhibition at 10 µM with RAW264.7 [1] was found to be 31.9%.

For `COc1ccc(C2=NN(c3ccc(C(=O)O)cc3)C(c3cc(OC)c(OC)c(OC)c3)C2)c2c1C=CC(C)(C)O2` (configuration not stated), the inhibition at 10 µM with RAW264.7 [1] worked out at 19.4%. As to `COc1ccc2c(c1)c(CC(=O)O)c(C)n2C(=O)c1ccc(Cl)cc1` [INDOMETHACIN], the inhibition at 10 µM in the test on RAW264.7 [1] was determined as 60.6%. Moreover, the IC50 in the test on RAW264.7 [2] amounted to 9.2 µM; in the test on RAW264.7 [3] it was 10.7 µM; in test [4], 4.5 µM. Also, the inhibition in vivo at 10 mg/kg with Mus musculus [5] was found to be 32%. With `COc1ccc(C2=NN(C(=O)C(C)C)C(c3cc(OC)c(OC)c(OC)c3)C2)c2c1C=CC(C)(C)O2` (configuration not stated), the inhibition at 10 µM in the test on RAW264.7 [1] stood at 54.2%. With `COc1ccc(C(=O)N2N=C(c3ccc(OC)c4c3OC(C)(C)C=C4)CC2c2cc(OC)c(OC)c(OC)c2)cc1` (configuration not stated), the inhibition result in the test with Mus musculus [6] is “Dose-dependent effect”. For the same molecule, the inhibition entry with Mus musculus [7] and in the test with Mus musculus [9] was “Active” each time. In addition, the inhibition at 10 µM with RAW264.7 [1] is 78%. For the same molecule, in the test on Mus musculus [8], the inhibition in vivo at 50 mg/kg turned out to be 54.2%. For the same molecule, the IC50 was more than 100 µM with RAW264.7 [2], more than 100 µM in the test with RAW264.7 [3] and 24.8 µM in test [4]. Take `COc1ccc(C2=NN(c3ccc(S(N)(=O)=O)cc3)C(c3cc(OC)c(OC)c(OC)c3)C2)c2c1C=CC(C)(C)O2` (configuration not stated): in the test with RAW264.7 [1], the inhibition at 10 µM worked out at 30.5%. Same read-out and setting: the figure for `CCS(=O)(=O)N1N=C(c2ccc(OC)c3c2OC(C)(C)C=C3)CC1c1cc(OC)c(OC)c(OC)c1` (configuration not stated) is 42.5%. On the same count and under the same terms, the figure for `COc1ccc(C2=NN(C(=O)c3ccccc3F)C(c3cc(OC)c(OC)c(OC)c3)C2)c2c1C=CC(C)(C)O2` (configuration not stated) is 27.8%. For `COc1ccc(C2=NN(C(C)=O)C(c3cc(OC)c(OC)c(OC)c3)C2)c2c1C=CC(C)(C)O2` (configuration not stated), in the test with RAW264.7 [1], the inhibition at 10 µM is 89.8%. Moreover, the values for the IC50 (in the test with RAW264.7 [2]; in the test with RAW264.7 [3]; in test [4]) were more than 100 µM, more than 100 µM and 7.3 µM, respectively. As for `COc1ccc(C2=NN(C(=O)c3cccc(C(F)(F)F)c3)C(c3cc(OC)c(OC)c(OC)c3)C2)c2c1C=CC(C)(C)O2` (configuration not stated), the inhibition at 10 µM in the test on RAW264.7 [1] came to 22.4%.

The values are drawn from ChEMBL document CHEMBL3421627, “Synthesis and biological evaluation of novel pyrazoline derivatives as potent anti-inflammatory agents” (Bioorg Med Chem Lett, 2015).
